From patent US20120264735A1 (priority 2009, published 2012) come the findings set out here.

Structures are written as SMILES. Some results are limits rather than exact numbers.

T1 sequence (P08581 25-1390): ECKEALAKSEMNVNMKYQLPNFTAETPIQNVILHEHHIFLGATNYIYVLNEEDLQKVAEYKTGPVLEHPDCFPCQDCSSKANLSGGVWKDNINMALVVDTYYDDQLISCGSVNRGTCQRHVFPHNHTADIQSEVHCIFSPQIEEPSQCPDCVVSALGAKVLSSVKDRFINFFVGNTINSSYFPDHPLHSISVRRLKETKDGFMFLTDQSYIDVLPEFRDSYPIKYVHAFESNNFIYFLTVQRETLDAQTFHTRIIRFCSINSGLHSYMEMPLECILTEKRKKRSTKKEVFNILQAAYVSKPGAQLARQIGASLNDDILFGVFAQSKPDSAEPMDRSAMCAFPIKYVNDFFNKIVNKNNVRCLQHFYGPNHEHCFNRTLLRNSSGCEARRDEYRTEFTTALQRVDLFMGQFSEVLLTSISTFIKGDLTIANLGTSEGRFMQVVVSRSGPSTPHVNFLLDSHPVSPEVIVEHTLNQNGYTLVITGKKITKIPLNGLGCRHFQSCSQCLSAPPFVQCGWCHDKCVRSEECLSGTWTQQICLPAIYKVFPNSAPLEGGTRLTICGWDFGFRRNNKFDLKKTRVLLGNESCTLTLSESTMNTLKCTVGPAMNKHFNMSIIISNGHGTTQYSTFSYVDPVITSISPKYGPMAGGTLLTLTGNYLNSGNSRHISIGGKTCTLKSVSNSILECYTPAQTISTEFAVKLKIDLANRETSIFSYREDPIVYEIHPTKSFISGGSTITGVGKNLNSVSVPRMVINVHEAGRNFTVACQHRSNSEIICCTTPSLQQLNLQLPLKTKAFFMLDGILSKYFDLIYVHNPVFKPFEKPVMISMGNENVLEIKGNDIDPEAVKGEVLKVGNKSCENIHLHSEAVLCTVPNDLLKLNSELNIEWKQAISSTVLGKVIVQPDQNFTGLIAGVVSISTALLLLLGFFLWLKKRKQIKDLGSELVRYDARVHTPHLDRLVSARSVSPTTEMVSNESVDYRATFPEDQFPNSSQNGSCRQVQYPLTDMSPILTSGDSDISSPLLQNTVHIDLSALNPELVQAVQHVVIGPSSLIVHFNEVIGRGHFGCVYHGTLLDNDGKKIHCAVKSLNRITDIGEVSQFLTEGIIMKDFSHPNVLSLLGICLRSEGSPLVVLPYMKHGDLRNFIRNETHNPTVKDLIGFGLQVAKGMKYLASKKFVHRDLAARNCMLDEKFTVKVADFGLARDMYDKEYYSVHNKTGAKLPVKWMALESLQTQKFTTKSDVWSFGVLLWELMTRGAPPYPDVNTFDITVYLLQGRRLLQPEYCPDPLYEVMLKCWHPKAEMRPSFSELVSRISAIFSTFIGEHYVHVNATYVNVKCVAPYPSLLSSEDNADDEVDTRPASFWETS

The assay concerns the target T1, c-Met kinase (recombinant c-Met) (Homo sapiens, UniProt P08581).
T1 construct: 0.27 nM recombinant c-Met
The assay is described as follows: In vitro kinase assay I (homogeneous time-resolved fluorescence tyrosine kinase assay). In kind it is biochemical. Put shortly:
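Biotinylated peptide (0.5 μM) phosphorylated by 0.2 nM recombinant c-Met with 50 μM MgATP, 60 min at room temperature, pH 7.4, 5% DMSO. EDTA stop; HTRF read with Eu-anti-phosphotyrosine antibody and streptavidin-APC. IC50 from 4-parameter logistic fit.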
For `CC1(COC(=O)Nc2cccc(Cc3nn(-c4cc(F)c(F)c(F)c4)ccc3=O)c2)COC1` [Example 560, (3-methyloxetan-3-yl)methyl (3-{[4-oxo-1-(3,4,5-trifluorophenyl)-1,4-dihydropyridazin-3-yl]methyl}phenyl)carbamate], the IC50 (usually the midpoint of a concentration-inhibition curve) was below 100 nM.

For the compound `CCCN(C)c1cnc(-c2cccc(Cc3nn(-c4cnn(C)c4)ccc3=O)c2)nc1` [Example 456, 3-(3-{5-[Methyl(propyl)amino]pyrimidin-2-yl}benzyl)-1-(1-methyl-1H-pyrazol-4-yl)pyridazin-4(1H)-one], the IC50 is below 100 nM.

Regarding `CCn1cnc(-c2cccc(Cc3nn(-c4cnn(CCOCc5ccccc5)c4)ccc3=O)c2)n1` [Example 88, 1-{1-[2-(benzyloxy)ethyl]-1H-pyrazol-4-yl}-3-[3-(1-ethyl-1H-1,2,4-triazol-3-yl)benzyl]pyridazin-4(1H)-one], the IC50 is 100 to 1000 nM.

As for `CC1COCCN1c1cnc(-c2cccc(Cc3nn(-c4cnn(C)c4)ccc3=O)c2)nc1` (racemic) [Example 450, rac-3-{3-[5-(3-methylmorpholin-4-yl)pyrimidin-2-yl]benzyl}-1-(1-methyl-1H-pyrazol-4-yl)pyridazin-4(1H)-one], the IC50 was below 100 nM.

Turning to `Cc1noc(-c2cccc(Cc3nn(-c4cnn(C)c4)ccc3=O)c2)n1` [Example 41, 3-[3-(3-methyl-1,2,4-oxadiazol-5-yl)benzyl]-1-(1-methyl-1H-pyrazol-4-yl)pyridazin-4(1H)-one], the IC50 fell in the range of 1000 to 3000 nM.

Regarding `Cn1cc(-n2ccc(=O)c(Cc3cccc(-c4ncc(O[C@H]5CC[C@](C)(O)CC5)cn4)c3)n2)cn1` [Example 122, 3-(3-{5-[(trans-4-hydroxy-4-methylcyclohexyl)oxy]pyrimidin-2-yl}benzyl)-1-(1-methyl-1H-pyrazol-4-yl)pyridazin-4(1H)-one], the 50% inhibitory concentration (IC50) was below 100 nM.

For the compound `CC(c1cccc(-c2ncc(-c3cnn(C)c3)cn2)c1)c1nn(-c2ccc(F)c(F)c2)ccc1=O` (single isomer, unassigned) [Example 239, 1-(3,4-difluorophenyl)-3-[(1R or S)-1-{3-[5-(1-methyl-1H-pyrazol-4-yl)pyrimidin-2-yl]phenyl}ethyl]pyridazin-4(1H)-one], the IC50 was below 100 nM.

With `CCOC(=O)Nc1cccc(Cc2nn(-c3cnn(CCO)c3)ccc2=O)c1` [Example 643, Ethyl [3-({1-[1-(2-hydroxyethyl)-1H-pyrazol-4-yl]-4-oxo-1,4-dihydropyridazin-3-yl}methyl)phenyl]carbamate], the IC50 is below 100 nM.

For `CC(C)COC(=O)Nc1cccc(Cc2nn(-c3cnn(CCCC(=O)NCC(C)(C)O)c3)ccc2=O)c1` [Example 705, 2-methylpropyl (3-{[1-(1-{4-[(2-hydroxy-2-methylpropyl)amino]-4-oxobutyl}-1H-pyrazol-4-yl)-4-oxo-1,4-dihydropyridazin-3-yl]methyl}phenyl) carbamate], the IC50 is below 100 nM.

Take `Cn1cc(-n2ccc(=O)c(Cc3cccc(-c4ncc(-c5ccncc5)cn4)c3)n2)cn1` [Example 409, 1-(1-Methyl-1H-pyrazol-4-yl)-3-{3-[5-(pyridin-4-yl)pyrimidin-2-yl]benzyl}pyridazin-4(1H)-one]: the IC50 is below 100 nM.

In the case of `COC/C=C/c1cnc(-c2cccc(Cc3nn(-c4cnn(C)c4)ccc3=O)c2)nc1` [Example 402, 3-(3-{5-[(1E)-3-methoxyprop-1-en-1-yl]pyrimidin-2-yl}benzyl)-1-(1-methyl-1H-pyrazol-4-yl)pyridazin-4(1H)-one], the concentration for half-maximal inhibition (IC50) was below 100 nM.

For `Cn1cc(-n2ccc(=O)c(Cc3cccc(NC(=O)OCC4COCCO4)c3)n2)cn1` (racemic) [Example 568, rac-1,4-dioxan-2-ylmethyl (3-{[1-(1-methyl-1H-pyrazol-4-yl)-4-oxo-1,4-dihydropyridazin-3-yl]methyl}phenyl)carbamate], the IC50 is below 100 nM.
